# According to patent publication US6716858B1, “Methods for inhibiting diabetic complications” (Kansas University Medical Center, priority 1995, dated 2004):
# Experiments:
# [1] = system: post-Amadori AGE formation, RNase Amadori intermediate; assay: Interrupted (post-Amadori) ribose glycation assay, RNase; format: biochemical, bovine; settings: RNase, 24 h in 0.5 M ribose, then free ribose removed, 37° C.
# Description: (§1) ELISA detection of AGE products. The general method of Engvall (1981, Methods Enzymol. 70:419-439) was used to perform the ELISA. Typically, glycated protein samples were diluted to approximately 1.5 ug/ml in 0.1 M sodium carbonate buffer of pH 9.5 to 9.7. The protein was coated overnight at room temperature onto 96-well polystyrene plates by pippetting 200 ul of the protein solution in each well (0.3 ug/well). After coating, the protein was washed from the wells with a saline solution containing 0.05% Tween-20. The wells were then blocked with 200 ul of 1% casein in carbonate buffer for 2 h at 37° C. followed by washing. Rabbit anti-AGE antibodies were diluted at a titer of about 1:350 in incubation buffer, and incubated for 1 h at 37° C., followed by washing. In order to minimize background readings, antibodies R479 used to detect glycated RNase were raised against glycated BSA, and antibodies R618 used to detect glycated BSA and glycated Hb were raised against glycated RNase. An alkaline phosphatase-conjugated antibody to rabbit IgG was then added as the secondary antibody at a titer of 1:2000 or 1:2500 (depending on lot) and incubated for 1 h at 37° C., followed by washing. The p-nitrophenylphosphate substrate solution was then added (200 ul/well) to the plates, with the absorbance of the released p-nitrophenolate being monitored at 410 nm with a Dynatech MR 4000 microplate reader.
# Glycation Modifications Modification with ribose or glucose was generally done at 37° C. in 0.4 M phosphate buffer of pH 7.5 containing 0.02% sodium azide. The high buffer concentration was always used with 0.5 M ribose modifications. The solutions were kept in capped tubes and opened only to remove timed aliquots that were immediately frozen for later carrying out the various analyses. “Interrupted glycation” experiments were carried out by first incubating protein with the ribose at 37° C. for 8 or 24 h, followed by immediate and extensive dialysis against frequent cold buffer changes at 4° C. The samples were then reincubated by quickly warming to 37° C. in the absence of external ribose. Aliquots were taken and frozen at various intervals for later analysis. Due to the low molecular weight of RNase, protein concentrations were remeasured after dialysis even when low molecular weight cut-off dialysis tubing was used. An alternative procedure was also devised (see below) in which interruption was achieved by simple 100-fold dilution from reaction mixtures containing 0.5 M ribose. Protein concentrations were estimated from UV spectra. The difference in molar extinction between the peak (278 nm) and trough (250 nm) was used for RNase concentration determinations in order to compensate for the general increase in UV absorbance that accompanies glycation. Time-dependent UV-difference spectral studies were carried out to characterize the glycation contributions of the UV spectrum. […]
# Glycation was first carried out by incubating protein (10 mg/ml) with 0.5 M ribose at 37° C. in 0.4 M phosphate buffer at pH 7.5 containing 0.2% sodium azide for 24 h in the absence of inhibitors. Glycation was then interrupted to remove excess and reversibly bound (Schiff base) sugar by extensive dialysis against frequent cold buffer changes at 4° C.
# [2] = system: AGE formation in bovine serum albumin (BSA); assay: Uninterrupted glycation of BSA with glucose, anti-AGE ELISA; format: biochemical; settings: BSA 10 mg/ml, 1.0 M glucose, pH 7.5, 37° C., 6 weeks; inhibitors 3, 15 and 50 mM
# Description: (§2) Uninterrupted Glycation with Glucose Bovine serum albumin, ribonuclease A, and human hemoglobin were incubated with glucose at 37° C. in 0.4 M sodium phosphate buffer of pH 7.5 containing 0.02% sodium azide. The protein, glucose (at 1.0 M), and prospective inhibitors (at 0.5, 3, 15 and 50 mM) were introduced into the incubation mixture simultaneously. Solutions were kept in the dark in capped tubes. Aliquots were taken and immediately frozen until analyzed by ELISA at the conclusion of the reaction. The incubations were for 3 weeks (Hb) or 6 weeks (RNase, BSA).
# as §1
# FIGS. 1 A-D are graphs which show the effect of vitamin B6 derivatives on post-Amadori AGE formation in bovine serum albumin glycated with glucose. BSA (10 mg/ml) was incubated with 1.0 M glucose in the presence and absence of the various indicated derivative in 0.4 M sodium phosphate buffer of pH 7.5 at 37° C. for 6 weeks. Aliquots were assayed by ELISA using R618 anti-AGE antibodies. Concentrations of the inhibitors were 3, 15 and 50 mM. Inhibitors used in FIGS. (1A) Pyridoxamine (PM); (1B) pyridoxal phosphate (PLP); (1C) pyridoxal (PL); (1D) pyridoxine (PN).
# FIGS. 2A-D are graphs which show the effect of vitamin B1 derivatives and aminoguanidine (AG) on AGE formation in bovine serum albumin. BSA (10 mg/ml) was incubated with 1.0 M glucose in the presence and absence of the various indicated derivative in 0.4 M sodium phosphate buffer of pH 7.5 at 37° C. for 6 weeks. Aliquots were assayed by ELISA using R618 anti-AGE antibodies. Concentrations of the inhibitors were 3, 15 and 50 mM. Inhibitors used in FIGS. (2A) Thiamine pyrophosphate (TPP); (2B) thiamine monophosphate (TP); (2C) thiamine (T); (2D) aminoguanidine (AG).
# [3] = system: AGE formation during uninterrupted glycation of bovine serum albumin (BSA) by ribose; assay: Uninterrupted ribose glycation assay, BSA; format: biochemical; settings: 0.05 M ribose, 6 weeks, inhibitors 0.5-50 mM
# Description: as §1
# as §2, with “ribose glycation assays” for “Glycation with Glucose”, “ribose” for “glucose”, “protein (10 mg/ml or 1 mg/ml), 0.05 M ribose,” for “protein, glucose (at 1.0 M),”, “BSA). Glycation reactions were monitored for constant pH throughout the duration of the experiments.” for “BSA).”
# [4] = system: AGE formation during uninterrupted glycation of ribonuclease A (RNase A) by ribose; assay: Uninterrupted ribose glycation assay, RNase; format: biochemical, bovine; settings: continuous 0.05 M ribose, 6 weeks, inhibitors 0.5-50 mM
# Description: as §1
# as §2, with “ribose glycation assays” for “Glycation with Glucose”, “ribose” for “glucose”, “protein (10 mg/ml or 1 mg/ml), 0.05 M ribose,” for “protein, glucose (at 1.0 M),”, “BSA). Glycation reactions were monitored for constant pH throughout the duration of the experiments.” for “BSA).”
# The inhibitory effects of vitamin B1 and B6 derivatives on the kinetics of antigenic AGE formation were evaluated by polyclonal antibodies specific for AGEs. Initial inhibition studies were carried out on the glycation of bovine ribonuclease A (RNase) in the continuous presence of 0.05 M ribose, which is the concentration of ribose where the rate of AGE formation is near maximal.
# [5] = system: post-Amadori AGE formation, BSA Amadori intermediate; assay: Interrupted (post-Amadori) ribose glycation assay, BSA; format: biochemical, bovine; settings: 24 h in 0.5 M ribose, then free ribose removed, 37° C.
# Description: as §1
# Glycation was first carried out by incubating protein (10 mg/ml) with 0.5 M ribose at 37° C. in 0.4 M phosphate buffer at pH 7.5 containing 0.2% sodium azide for 24 h in the absence of inhibitors. Glycation was then interrupted to remove excess and reversibly bound (Schiff base) sugar by extensive dialysis against frequent cold buffer changes at 4° C. The glycated intermediate samples containing maximal amount of Amadori product and little AGE (depending on protein) were then quickly warmed to 37° C. without re-addition of ribose. This initiated conversion of Amadori intermediates to AGE products in the absence or presence of various concentrations (typically 3, 15 and 50 mM) of prospective inhibitors. Aliquots were taken and frozen at various intervals for later analysis. The solutions were kept in capped tubes and opened only to remove timed aliquots that were immediately frozen for later carrying out the various analyses.
# rats = assay: Ribose administration to rats (Phase I and II), renal physiology; format: in vivo, rat
# Description: Two groups of six rats each were given in one day either:
# a. 300 mM ribose (two intraperitoneal infusions 6-8 hours apart, each 5% of body weight as ml); or
# b. 50 mM ribose (one infusion)
# Rats were then kept for 4 days with no further ribose administration, at which time they were sacrificed and the following physiological measurements were determined: (i) initial and final body weight; (ii) final stage kidney weight; (iii) initial and final tail-cuff blood pressure; (iv) creatinine clearance per 100 g body weight.
# Groups of rats (3-6) were intraperitoneally given 0.3 M “low ribose dose” (LR) or 1.0 M “high ribose dose” (HR) by twice-daily injections for either (i) 1 day, (ii) a “short-term” (S) of 4 days, or (iii) a “long-term” (L) of 8 days. Additionally, these concentrations of ribose were included in drinking water.
# ribose-treated rats = assay: Ribose rat model, intervention by compounds (Phase III); format: in vivo; settings: 1 M ribose alone, 8 days
# Description: Sixty rats were randomized into 9 different groups, including those exposed to 1 M ribose for 8 days in the presence and absence of aminoguanidine, pyridoxamine, and thiamine pyrophosphate as follows:
# (ii) high dose (250 mg/kg body weight) of pyridoxamine (“compound-P”);
# (iii) high dose (250 mg/kg body weight of thiamine pyrophosphate (“compound-T” or “TPP”); and
# (iv) low dose (25 mg/kg body weight) of aminoguanidine (“AG”).
# (i) only 1 M ribose-saline (2×9 cc daily IP for 8 days);
# (ii) ribose plus low dose (“LP”) of pyridoxamine (25 mg/kg body weight injected as 0.5 ml with 9 cc ribose);
# (iii) ribose plus high dose (“HP”) of pyridoxamine (250 mg/kg body weight injected as 0.5 ml with 9 cc ribose);
# (iv) ribose plus high dose (“HT”) of thiamine pyrophosphate (250 mg/kg body weight injected as 0.5 ml with 9 cc ribose); and
# (v) ribose plus low dose of amino guanidine (25 mg/kg body weight injected as 0.5 ml with 9 cc ribose).
# Unlike Phase II, no ribose was administered in drinking water. Intervention compounds were pre-administered for one day prior to introducing them with ribose.
# [6] = Phase II: 0.3 M or 1.0 M ribose for 1, 4 or 8 days
inhibition of post-Amadori AGE formation [1],"creatinine clearance (rats; high ribose (2×300 mM), normal range expected about 1.0-1.2)","creatinine clearance (rats; low ribose (1×50 mM), normal range expected about 1.0-1.2)",Albumin effusion rate (AER) (ribose-treated rats),Compound,inhibition of antigenic AGE formation (ELISA) [2],inhibition of overall kinetics of AGE formation from ribose [3],inhibition of overall kinetics of AGE formation from ribose [4],inhibition of post-Amadori AGE formation [5],Albumin effusion rate (AER) (rats; [6]),creatinine clearance (rats; [6]),"tail-cuff blood pressure (rats; Phase II: 0.3 M or 1.0 M ribose twice daily IP for 1, 4 or 8 days, also in drinking water)","tail-cuff blood pressure (rats; high ribose (2×300 mM) in one day, measured 4 days later, from 66±4)","tail-cuff blood pressure (rats; low ribose (1×50 mM) in one day, measured 4 days later, from 66±4)"
showed significant inhibition at 15 mM,–,–,–,"Cc1ncc(COP(=O)(O)O)c(C=O)c1O [pyridoxal phosphate, pyridoxal-5′-phosphate]",strongly suppressed antigenic AGE formation at even the lowest concentrations tested,"mostly inhibited the rate of AGE formation, but not the final levels of AGE formed",significantly inhibited the rate of AGE formation on RNase at concentrations of 50 mM and 15 mM,–,–,–,–,–,–
–,–,–,–,Cc1ncc(CO)c(CO)c1O [pyridoxine],slightly effective at the highest concentrations tested,failed to inhibit AGE formation on BSA,moderately inhibited AGE formation on RNase,did not produce any inhibition,–,–,–,–,–
showed some intermediate effect,–,–,–,Cc1ncc(C[n+]2csc(CCOP(=O)(O)O)c2C)c(N)n1 [thiamine monophosphate],not inhibitory,–,"little effect on the rate of AGE formation, but a substantial decrease in the final level of AGE formed in the presence of the highest concentration of inhibitor",showed some intermediate effect,–,–,–,–,–
showed no effect,–,–,–,Cc1ncc(C[n+]2csc(CCO)c2C)c(N)n1 [thiamine],not inhibitory,"inhibited the final levels of AGEs formed, without greatly affecting the rate of AGE formation","little effect on the rate of AGE formation, but a substantial decrease in the final level of AGE formed in the presence of the highest concentration of inhibitor",showed no effect,–,–,–,–,–

Compound,inhibition of post-Amadori AGE formation [1],"creatinine clearance (rats; high ribose (2×300 mM), normal range expected about 1.0-1.2)","creatinine clearance (rats; low ribose (1×50 mM), normal range expected about 1.0-1.2)",Albumin effusion rate (AER) (ribose-treated rats),inhibition of antigenic AGE formation (ELISA) [2],inhibition of overall kinetics of AGE formation from ribose [3],inhibition of overall kinetics of AGE formation from ribose [4],inhibition of post-Amadori AGE formation [5],Albumin effusion rate (AER) (rats; [6]),creatinine clearance (rats; [6]),"tail-cuff blood pressure (rats; Phase II: 0.3 M or 1.0 M ribose twice daily IP for 1, 4 or 8 days, also in drinking water)","tail-cuff blood pressure (rats; high ribose (2×300 mM) in one day, measured 4 days later, from 66±4)","tail-cuff blood pressure (rats; low ribose (1×50 mM) in one day, measured 4 days later, from 66±4)"
Cc1ncc(CO)c(C=O)c1O [pyridoxal],did not show any significant inhibition at 15 mM,–,–,–,effective above 15 mM,"mostly inhibited the rate of AGE formation, but not the final levels of AGE formed",significantly inhibited the rate of AGE formation on RNase at concentrations of 50 mM and 15 mM,–,–,–,–,–,–
O=C[C@H](O)[C@H](O)[C@H](O)CO [ribose],diminished by increasing ribose concentrations,0.62±0.13 cc per 100 g body weight,0.87±0.15 cc per 100 g body weight,elevated,–,–,–,–,increased significantly in a ribose-dependent manner at 1-day and 4-day exposures,decreased in all groups in a ribose dose-dependent and time-dependent manner,increased in all groups of ribose-treated rats,106±5,83±3
